Data taken from ChEMBL document CHEMBL1139649, “Hetaryl imidazoles: a novel dual inhibitors of VEGF receptors I and II” (Bioorg Med Chem Lett, 2006).
pIC50: −log10 of the molar value.

Target: Vascular endothelial growth factor receptor 1 (Homo sapiens, UniProt P17948)
Test: Inhibition of VEGFR1 by enzymatic assay

Vascular endothelial growth factor receptor 1, sequence (P17948 whole entry): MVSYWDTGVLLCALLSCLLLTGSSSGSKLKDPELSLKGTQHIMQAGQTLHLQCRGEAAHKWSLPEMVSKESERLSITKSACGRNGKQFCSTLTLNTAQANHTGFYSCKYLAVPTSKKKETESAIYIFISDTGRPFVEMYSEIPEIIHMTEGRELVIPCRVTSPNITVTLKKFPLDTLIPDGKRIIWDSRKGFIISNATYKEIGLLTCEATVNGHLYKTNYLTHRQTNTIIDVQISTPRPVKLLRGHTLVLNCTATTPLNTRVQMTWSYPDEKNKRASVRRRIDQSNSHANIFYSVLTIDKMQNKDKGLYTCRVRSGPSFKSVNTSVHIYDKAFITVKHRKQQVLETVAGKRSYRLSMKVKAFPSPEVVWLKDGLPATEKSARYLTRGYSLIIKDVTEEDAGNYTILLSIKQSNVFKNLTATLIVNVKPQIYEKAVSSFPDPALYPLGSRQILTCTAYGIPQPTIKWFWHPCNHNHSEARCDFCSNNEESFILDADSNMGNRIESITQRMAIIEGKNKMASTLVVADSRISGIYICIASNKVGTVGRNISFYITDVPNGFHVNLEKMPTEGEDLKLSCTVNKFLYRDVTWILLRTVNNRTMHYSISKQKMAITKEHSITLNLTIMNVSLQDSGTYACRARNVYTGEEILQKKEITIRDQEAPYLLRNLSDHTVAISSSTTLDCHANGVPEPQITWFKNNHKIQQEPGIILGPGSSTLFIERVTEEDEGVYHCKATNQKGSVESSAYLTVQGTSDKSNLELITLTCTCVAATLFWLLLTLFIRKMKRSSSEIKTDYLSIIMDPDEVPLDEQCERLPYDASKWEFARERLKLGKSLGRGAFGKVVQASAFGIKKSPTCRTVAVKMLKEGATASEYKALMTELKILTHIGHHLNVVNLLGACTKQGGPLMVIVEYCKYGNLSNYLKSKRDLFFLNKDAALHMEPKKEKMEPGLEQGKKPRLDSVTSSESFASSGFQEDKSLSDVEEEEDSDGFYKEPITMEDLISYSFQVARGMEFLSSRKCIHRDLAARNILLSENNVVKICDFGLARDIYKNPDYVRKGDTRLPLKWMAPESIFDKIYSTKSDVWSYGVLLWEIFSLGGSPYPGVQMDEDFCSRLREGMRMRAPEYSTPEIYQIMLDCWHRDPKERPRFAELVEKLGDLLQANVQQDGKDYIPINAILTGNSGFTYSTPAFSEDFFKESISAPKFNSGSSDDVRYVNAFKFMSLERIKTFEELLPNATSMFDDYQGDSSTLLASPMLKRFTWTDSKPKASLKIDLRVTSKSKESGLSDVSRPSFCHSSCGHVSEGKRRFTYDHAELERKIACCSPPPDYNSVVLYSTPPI

pIC50 | SMILES
6.25 | Cn1cnc(NCc2ccncc2)c1-c1nnc(Nc2cccc(OC(F)(F)F)c2)o1
< 5.00 | Cn1cnc(NCc2ccncc2)c1-c1nnc(Nc2ccc(Oc3ccccc3)cc2)o1
5.83 | Cn1cnc(NCc2ccncc2)c1-c1nnc(Nc2ccc(Br)cc2)o1

Target: Cyclin-dependent kinase 2 (Homo sapiens) (UniProt P24941)
Test: […] against Cdk2 at 10 uM by HTRF method

Percent inhibition [%] | SMILES
< 30 | Cn1cnc(NCc2ccncc2)c1-c1nnc(Nc2cccc(OC(F)(F)F)c2)o1
< 30 | COc1ccccc1Nc1nnc(-c2c(NCc3ccncc3)ncn2C)o1
< 30 | Cn1cnc(NCc2ccncc2)c1-c1nnc(Nc2ccc(Oc3ccccc3)cc2)o1
< 30 | Cn1cnc(NCc2ccncc2)c1-c1nnc(Nc2ccc(Br)cc2)o1

Target: Hepatocyte growth factor receptor (Homo sapiens) (UniProt P08581)
Test: Percent inhibition against c-Met at 10 uM by HTRF method
Parameters: scale not given: the % may be the effect or the level left

Activity [%] | SMILES
< 30 | Cn1cnc(NCc2ccncc2)c1-c1nnc(Nc2cccc(OC(F)(F)F)c2)o1
< 30 | COc1ccccc1Nc1nnc(-c2c(NCc3ccncc3)ncn2C)o1
< 30 | Cn1cnc(NCc2ccncc2)c1-c1nnc(Nc2ccc(Oc3ccccc3)cc2)o1
< 30 | Cn1cnc(NCc2ccncc2)c1-c1nnc(Nc2ccc(Br)cc2)o1

Target: Cyclin-dependent kinase 5 (Homo sapiens) (UniProt Q00535)
Test: […] against Cdk5 at 10 uM by HTRF method

Cyclin-dependent kinase 5 (Homo sapiens), sequence (Q00535 whole entry, looked up): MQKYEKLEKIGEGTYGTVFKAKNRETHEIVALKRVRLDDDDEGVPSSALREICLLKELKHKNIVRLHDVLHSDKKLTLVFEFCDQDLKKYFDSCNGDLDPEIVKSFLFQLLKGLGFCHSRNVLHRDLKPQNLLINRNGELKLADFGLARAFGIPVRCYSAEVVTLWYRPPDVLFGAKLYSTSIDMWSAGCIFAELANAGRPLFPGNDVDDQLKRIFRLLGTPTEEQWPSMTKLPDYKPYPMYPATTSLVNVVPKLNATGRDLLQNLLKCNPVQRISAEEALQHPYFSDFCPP

Activity [%] | SMILES
< 30 | Cn1cnc(NCc2ccncc2)c1-c1nnc(Nc2cccc(OC(F)(F)F)c2)o1
< 30 | COc1ccccc1Nc1nnc(-c2c(NCc3ccncc3)ncn2C)o1
< 30 | Cn1cnc(NCc2ccncc2)c1-c1nnc(Nc2ccc(Oc3ccccc3)cc2)o1
< 30 | Cn1cnc(NCc2ccncc2)c1-c1nnc(Nc2ccc(Br)cc2)o1

Target: Bcr/Abl fusion protein (Homo sapiens) (UniProt P00519+P11274)
Test: Inhibition of bcr-Abl at 10 uM by HTRF method
Assay type: protein assay
Parameters: scale not given: the % may be the effect or the level left

Activity [%] | SMILES
< 30 | Cn1cnc(NCc2ccncc2)c1-c1nnc(Nc2cccc(OC(F)(F)F)c2)o1
< 30 | COc1ccccc1Nc1nnc(-c2c(NCc3ccncc3)ncn2C)o1
< 30 | Cn1cnc(NCc2ccncc2)c1-c1nnc(Nc2ccc(Oc3ccccc3)cc2)o1
< 30 | Cn1cnc(NCc2ccncc2)c1-c1nnc(Nc2ccc(Br)cc2)o1

Target: Receptor tyrosine-protein kinase erbB-2 (Homo sapiens) (UniProt P04626)
Test: […] against ErbB2 at 10 uM by HTRF method

Receptor tyrosine-protein kinase erbB-2 (Homo sapiens), sequence (P04626 whole entry): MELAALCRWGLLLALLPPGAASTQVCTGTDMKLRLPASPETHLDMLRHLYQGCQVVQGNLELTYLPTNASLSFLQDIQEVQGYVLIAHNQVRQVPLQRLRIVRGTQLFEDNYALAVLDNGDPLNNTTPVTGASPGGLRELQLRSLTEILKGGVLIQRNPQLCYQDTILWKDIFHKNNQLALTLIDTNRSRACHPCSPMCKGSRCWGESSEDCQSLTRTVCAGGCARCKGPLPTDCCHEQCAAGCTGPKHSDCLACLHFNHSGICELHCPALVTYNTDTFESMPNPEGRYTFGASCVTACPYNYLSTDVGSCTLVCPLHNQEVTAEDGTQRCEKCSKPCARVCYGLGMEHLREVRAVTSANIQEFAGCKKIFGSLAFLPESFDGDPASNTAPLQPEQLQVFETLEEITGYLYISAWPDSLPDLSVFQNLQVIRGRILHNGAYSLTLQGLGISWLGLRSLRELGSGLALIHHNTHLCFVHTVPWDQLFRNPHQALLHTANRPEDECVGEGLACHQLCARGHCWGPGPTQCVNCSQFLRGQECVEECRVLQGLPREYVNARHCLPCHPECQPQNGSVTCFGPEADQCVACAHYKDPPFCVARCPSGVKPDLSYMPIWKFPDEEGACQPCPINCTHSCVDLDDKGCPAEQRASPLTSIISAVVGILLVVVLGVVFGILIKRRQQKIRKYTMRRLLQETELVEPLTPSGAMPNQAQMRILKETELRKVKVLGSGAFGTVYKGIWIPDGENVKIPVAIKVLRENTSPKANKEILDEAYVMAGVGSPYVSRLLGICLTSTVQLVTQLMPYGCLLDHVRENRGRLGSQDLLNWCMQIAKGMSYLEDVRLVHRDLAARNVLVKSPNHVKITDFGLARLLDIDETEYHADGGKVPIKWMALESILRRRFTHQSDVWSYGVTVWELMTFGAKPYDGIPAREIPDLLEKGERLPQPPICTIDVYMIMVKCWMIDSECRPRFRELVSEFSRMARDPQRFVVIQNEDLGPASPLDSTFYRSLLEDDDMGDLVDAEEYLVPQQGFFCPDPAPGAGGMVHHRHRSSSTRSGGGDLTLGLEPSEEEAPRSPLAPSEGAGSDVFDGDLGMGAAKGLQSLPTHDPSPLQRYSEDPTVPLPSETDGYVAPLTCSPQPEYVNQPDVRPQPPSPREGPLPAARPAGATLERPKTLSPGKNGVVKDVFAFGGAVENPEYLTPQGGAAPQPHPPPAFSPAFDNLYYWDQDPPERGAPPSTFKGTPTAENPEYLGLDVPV

Activity [%] | SMILES
< 30 | Cn1cnc(NCc2ccncc2)c1-c1nnc(Nc2cccc(OC(F)(F)F)c2)o1
< 30 | COc1ccccc1Nc1nnc(-c2c(NCc3ccncc3)ncn2C)o1
< 30 | Cn1cnc(NCc2ccncc2)c1-c1nnc(Nc2ccc(Oc3ccccc3)cc2)o1
< 30 | Cn1cnc(NCc2ccncc2)c1-c1nnc(Nc2ccc(Br)cc2)o1

Target: cAMP-dependent protein kinase (PKA) (Homo sapiens) (UniProt P22694+P17612+P22612)
Test: Inhibition against PKA at 10 uM by HTRF method
Assay type: protein assay
Parameters: scale not given: the % may be the effect or the level left

Activity [%] | SMILES
< 30 | Cn1cnc(NCc2ccncc2)c1-c1nnc(Nc2cccc(OC(F)(F)F)c2)o1
< 30 | COc1ccccc1Nc1nnc(-c2c(NCc3ccncc3)ncn2C)o1
< 30 | Cn1cnc(NCc2ccncc2)c1-c1nnc(Nc2ccc(Oc3ccccc3)cc2)o1
< 30 | Cn1cnc(NCc2ccncc2)c1-c1nnc(Nc2ccc(Br)cc2)o1

Target: RAC-alpha serine/threonine-protein kinase (Homo sapiens) (UniProt P31749)
Test: […] against PKB/Akt at 10 uM by HTRF method

Activity [%] | SMILES
< 30 | Cn1cnc(NCc2ccncc2)c1-c1nnc(Nc2cccc(OC(F)(F)F)c2)o1
< 30 | COc1ccccc1Nc1nnc(-c2c(NCc3ccncc3)ncn2C)o1
< 30 | Cn1cnc(NCc2ccncc2)c1-c1nnc(Nc2ccc(Oc3ccccc3)cc2)o1
< 30 | Cn1cnc(NCc2ccncc2)c1-c1nnc(Nc2ccc(Br)cc2)o1

Target: Epidermal growth factor receptor (Homo sapiens) (UniProt P00533)
Test: […] against ErbB1 at 10 uM by HTRF method

Epidermal growth factor receptor (Homo sapiens), sequence (P00533 whole entry): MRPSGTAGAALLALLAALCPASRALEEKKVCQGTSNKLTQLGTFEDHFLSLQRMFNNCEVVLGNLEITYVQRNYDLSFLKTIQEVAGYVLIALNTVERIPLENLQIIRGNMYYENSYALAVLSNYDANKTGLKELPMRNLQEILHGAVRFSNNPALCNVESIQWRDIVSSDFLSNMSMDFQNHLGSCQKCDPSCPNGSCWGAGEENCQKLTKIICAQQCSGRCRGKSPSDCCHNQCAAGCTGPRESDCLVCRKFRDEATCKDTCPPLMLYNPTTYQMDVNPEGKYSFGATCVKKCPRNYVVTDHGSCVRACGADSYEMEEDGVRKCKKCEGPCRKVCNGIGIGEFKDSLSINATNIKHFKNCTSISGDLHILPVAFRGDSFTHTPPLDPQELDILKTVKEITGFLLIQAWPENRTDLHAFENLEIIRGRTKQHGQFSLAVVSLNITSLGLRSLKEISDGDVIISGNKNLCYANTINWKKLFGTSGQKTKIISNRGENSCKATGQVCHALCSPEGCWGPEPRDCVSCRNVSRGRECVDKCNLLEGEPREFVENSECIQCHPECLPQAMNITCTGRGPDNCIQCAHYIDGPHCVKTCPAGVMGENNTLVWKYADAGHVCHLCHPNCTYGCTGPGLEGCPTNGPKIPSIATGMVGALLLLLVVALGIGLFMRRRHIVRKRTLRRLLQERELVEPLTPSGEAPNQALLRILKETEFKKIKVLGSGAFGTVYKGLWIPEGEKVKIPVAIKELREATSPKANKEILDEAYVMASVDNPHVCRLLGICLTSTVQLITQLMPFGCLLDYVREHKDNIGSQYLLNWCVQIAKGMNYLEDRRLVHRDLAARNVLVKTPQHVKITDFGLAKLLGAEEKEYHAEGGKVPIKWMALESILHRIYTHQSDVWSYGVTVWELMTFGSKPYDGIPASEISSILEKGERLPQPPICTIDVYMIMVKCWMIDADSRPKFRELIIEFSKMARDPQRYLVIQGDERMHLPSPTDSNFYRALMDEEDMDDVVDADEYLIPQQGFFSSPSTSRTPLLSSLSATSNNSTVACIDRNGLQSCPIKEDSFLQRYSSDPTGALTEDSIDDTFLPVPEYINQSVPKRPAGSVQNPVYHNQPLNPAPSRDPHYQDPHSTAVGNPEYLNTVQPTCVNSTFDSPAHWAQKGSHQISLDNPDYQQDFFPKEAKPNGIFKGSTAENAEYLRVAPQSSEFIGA

Percent inhibition [%] | SMILES
< 30 | Cn1cnc(NCc2ccncc2)c1-c1nnc(Nc2cccc(OC(F)(F)F)c2)o1
< 30 | COc1ccccc1Nc1nnc(-c2c(NCc3ccncc3)ncn2C)o1
< 30 | Cn1cnc(NCc2ccncc2)c1-c1nnc(Nc2ccc(Oc3ccccc3)cc2)o1
< 30 | Cn1cnc(NCc2ccncc2)c1-c1nnc(Nc2ccc(Br)cc2)o1

Target: Receptor-type tyrosine-protein kinase FLT3 (Homo sapiens) (UniProt P36888)
Test: Inhibition of Flt3 at 10 uM by HTRF method
Parameters: scale not given: the % may be the effect or the level left

Receptor-type tyrosine-protein kinase FLT3 (Homo sapiens), sequence (P36888 whole entry): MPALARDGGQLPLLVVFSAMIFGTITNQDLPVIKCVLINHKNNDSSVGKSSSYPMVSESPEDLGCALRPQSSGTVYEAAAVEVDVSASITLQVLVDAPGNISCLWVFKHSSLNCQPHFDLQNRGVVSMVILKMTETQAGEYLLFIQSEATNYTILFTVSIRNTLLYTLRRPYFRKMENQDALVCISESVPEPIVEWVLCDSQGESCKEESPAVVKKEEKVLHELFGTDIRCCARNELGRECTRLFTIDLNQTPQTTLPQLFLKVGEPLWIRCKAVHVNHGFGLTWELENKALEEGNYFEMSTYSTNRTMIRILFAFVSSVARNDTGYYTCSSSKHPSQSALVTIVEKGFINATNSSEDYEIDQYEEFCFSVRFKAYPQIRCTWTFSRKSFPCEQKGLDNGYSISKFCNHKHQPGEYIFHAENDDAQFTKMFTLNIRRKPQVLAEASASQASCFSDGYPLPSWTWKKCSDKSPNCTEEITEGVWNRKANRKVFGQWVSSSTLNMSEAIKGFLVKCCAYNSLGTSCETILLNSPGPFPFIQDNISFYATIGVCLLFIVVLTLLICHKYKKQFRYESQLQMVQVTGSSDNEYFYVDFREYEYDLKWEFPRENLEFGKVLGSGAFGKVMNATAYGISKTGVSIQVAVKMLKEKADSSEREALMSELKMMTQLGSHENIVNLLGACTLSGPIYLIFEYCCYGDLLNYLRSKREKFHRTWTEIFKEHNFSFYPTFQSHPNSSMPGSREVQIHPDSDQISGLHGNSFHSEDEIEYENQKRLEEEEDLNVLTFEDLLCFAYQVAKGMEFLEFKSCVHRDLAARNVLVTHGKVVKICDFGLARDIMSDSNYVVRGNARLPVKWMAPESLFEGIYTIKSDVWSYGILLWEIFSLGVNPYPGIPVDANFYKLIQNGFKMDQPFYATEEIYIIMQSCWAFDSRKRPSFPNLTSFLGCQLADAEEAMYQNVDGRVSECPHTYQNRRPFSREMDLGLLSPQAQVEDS

Activity [%] | SMILES
< 30 | Cn1cnc(NCc2ccncc2)c1-c1nnc(Nc2cccc(OC(F)(F)F)c2)o1
< 30 | COc1ccccc1Nc1nnc(-c2c(NCc3ccncc3)ncn2C)o1
< 30 | Cn1cnc(NCc2ccncc2)c1-c1nnc(Nc2ccc(Oc3ccccc3)cc2)o1
< 30 | Cn1cnc(NCc2ccncc2)c1-c1nnc(Nc2ccc(Br)cc2)o1

Target: Glycogen synthase kinase-3 beta (Homo sapiens) (UniProt P49841)
Test: Inhibition against GSK3-beta at 10 uM by HTRF method
Parameters: scale not given: the % may be the effect or the level left

Activity [%] | SMILES
< 30 | Cn1cnc(NCc2ccncc2)c1-c1nnc(Nc2cccc(OC(F)(F)F)c2)o1
< 30 | COc1ccccc1Nc1nnc(-c2c(NCc3ccncc3)ncn2C)o1
< 30 | Cn1cnc(NCc2ccncc2)c1-c1nnc(Nc2ccc(Oc3ccccc3)cc2)o1
< 30 | Cn1cnc(NCc2ccncc2)c1-c1nnc(Nc2ccc(Br)cc2)o1

Target: Insulin-like growth factor 1 receptor (Homo sapiens) (UniProt P08069)
Test: […] against IGF1R at 10 uM by HTRF method

Activity [%] | SMILES
< 30 | Cn1cnc(NCc2ccncc2)c1-c1nnc(Nc2cccc(OC(F)(F)F)c2)o1
< 30 | COc1ccccc1Nc1nnc(-c2c(NCc3ccncc3)ncn2C)o1
< 30 | Cn1cnc(NCc2ccncc2)c1-c1nnc(Nc2ccc(Oc3ccccc3)cc2)o1
< 30 | Cn1cnc(NCc2ccncc2)c1-c1nnc(Nc2ccc(Br)cc2)o1

Target: Fibroblast growth factor receptor 1 (Homo sapiens) (UniProt P11362)
Test: Percent inhibition against FGFR1 at 10 uM by HTRF method
Parameters: scale not given: the % may be the effect or the level left

Activity [%] | SMILES
< 30 | Cn1cnc(NCc2ccncc2)c1-c1nnc(Nc2cccc(OC(F)(F)F)c2)o1
< 30 | COc1ccccc1Nc1nnc(-c2c(NCc3ccncc3)ncn2C)o1
< 30 | Cn1cnc(NCc2ccncc2)c1-c1nnc(Nc2ccc(Oc3ccccc3)cc2)o1
< 30 | Cn1cnc(NCc2ccncc2)c1-c1nnc(Nc2ccc(Br)cc2)o1

Target: T1, Vascular endothelial growth factor receptor 2 (Homo sapiens, UniProt P35968)
Test: Inhibition of VEGFR2 by enzymatic assay

pIC50 | SMILES
7.34 | Cn1cnc(NCc2ccncc2)c1-c1nnc(Nc2cccc(OC(F)(F)F)c2)o1
< 5.00 | Cn1cnc(NCc2ccncc2)c1-c1nnc(Nc2ccc(Oc3ccccc3)cc2)o1
6.14 | Cn1cnc(NCc2ccncc2)c1-c1nnc(Nc2ccc(Br)cc2)o1

Target: T1, Vascular endothelial growth factor receptor 2
Test: Inhibition of VEGFR2 in 293 adenovirus transfected kidney cells by cell-based ELISA assay

pIC50 | SMILES
6.89 | Cn1cnc(NCc2ccncc2)c1-c1nnc(Nc2cccc(OC(F)(F)F)c2)o1

Target: T2, Ephrin type-B receptor 4 (Homo sapiens) (UniProt P54760)
T2 sequence (whole entry): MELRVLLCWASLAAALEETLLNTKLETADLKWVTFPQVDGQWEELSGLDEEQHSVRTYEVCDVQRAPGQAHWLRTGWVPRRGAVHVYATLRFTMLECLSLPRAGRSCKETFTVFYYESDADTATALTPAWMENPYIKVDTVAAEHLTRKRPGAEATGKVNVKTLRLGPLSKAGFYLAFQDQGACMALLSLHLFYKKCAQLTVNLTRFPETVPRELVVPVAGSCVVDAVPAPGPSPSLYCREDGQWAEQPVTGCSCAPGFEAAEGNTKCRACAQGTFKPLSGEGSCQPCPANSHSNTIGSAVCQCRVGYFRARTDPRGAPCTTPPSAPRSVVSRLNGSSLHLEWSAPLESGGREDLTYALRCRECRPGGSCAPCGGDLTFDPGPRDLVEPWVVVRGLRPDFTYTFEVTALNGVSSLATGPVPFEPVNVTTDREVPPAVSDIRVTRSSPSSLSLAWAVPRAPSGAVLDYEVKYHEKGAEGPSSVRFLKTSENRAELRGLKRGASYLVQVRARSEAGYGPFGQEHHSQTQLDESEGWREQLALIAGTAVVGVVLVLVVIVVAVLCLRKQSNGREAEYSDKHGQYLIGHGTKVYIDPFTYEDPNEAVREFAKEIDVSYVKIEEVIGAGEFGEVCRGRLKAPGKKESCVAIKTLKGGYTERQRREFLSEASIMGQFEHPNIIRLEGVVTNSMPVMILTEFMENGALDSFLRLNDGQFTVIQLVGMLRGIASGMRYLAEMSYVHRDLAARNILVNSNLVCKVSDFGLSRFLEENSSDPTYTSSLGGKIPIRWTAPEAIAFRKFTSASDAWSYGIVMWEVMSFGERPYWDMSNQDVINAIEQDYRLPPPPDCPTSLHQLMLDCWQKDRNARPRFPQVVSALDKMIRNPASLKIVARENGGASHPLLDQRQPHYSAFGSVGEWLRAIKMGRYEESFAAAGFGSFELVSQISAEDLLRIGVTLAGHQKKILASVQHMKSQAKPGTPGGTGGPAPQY
Test: Percent inhibition against EphB4 at 10 uM by HTRF method
Parameters: scale not given: the % may be the effect or the level left

Activity [%] | SMILES
< 30 | Cn1cnc(NCc2ccncc2)c1-c1nnc(Nc2cccc(OC(F)(F)F)c2)o1
< 30 | COc1ccccc1Nc1nnc(-c2c(NCc3ccncc3)ncn2C)o1
< 30 | Cn1cnc(NCc2ccncc2)c1-c1nnc(Nc2ccc(Oc3ccccc3)cc2)o1
< 30 | Cn1cnc(NCc2ccncc2)c1-c1nnc(Nc2ccc(Br)cc2)o1
